US20230121086A1, “RORgT INHIBITOR, PREPARATION METHOD THEREOF AND USE THEREOF” (SUNSHINE LAKE PHARMA CO., LTD., priority 2020, published 2023)

These compounds were tested against T1, RORγt (Homo sapiens, UniProt P51449) (assay: Fluorescence resonance energy transfer (FRET) test, inhibitory activity of RORγt). Conditions: FRET, B-RORγt LBD / Biotin-SRC1; read-out: IC50.
T1 construct: […]
T1 sequence (P51449 269-508 limits assumed): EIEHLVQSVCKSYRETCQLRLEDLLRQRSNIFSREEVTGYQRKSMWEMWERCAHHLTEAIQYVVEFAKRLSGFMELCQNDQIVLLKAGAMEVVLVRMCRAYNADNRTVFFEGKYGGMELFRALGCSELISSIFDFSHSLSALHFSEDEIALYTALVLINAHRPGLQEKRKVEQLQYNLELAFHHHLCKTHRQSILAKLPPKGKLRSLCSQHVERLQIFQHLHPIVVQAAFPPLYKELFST
Type: biochemical

SMILES	IC50 [nM]
CCS(=O)(=O)c1ccc([C@H](CC#N)NC(=O)c2ccc(N3C[C@@H](Oc4ccc(OC(C)C)nc4)C[C@H]3COC(F)F)cc2)cc1 [Example 20, N-((S)-2-cyano-1-(4-(ethylsulfonyl)phenyl)ethyl)-4-((2S,4S)-2-((difluoromethoxy)methyl)-4-((6-isopropoxypyridin-3-yl)oxy)pyrrolidin-1-yl)benzamide]	30
CCS(=O)(=O)c1ccc([C@H](CC#N)NC(=O)c2ccc(N3C[C@@H](Oc4ccc(Cl)cc4)C[C@H]3COC(F)F)cc2)cc1 [Example 21, 4-((2S)-4-(4-chlorophenoxy)-2-((difluoromethoxy)methyl)pyrrolidin-1-yl)-N-((S)-2-cyano-1-(4-(ethylsulfonyl)phenyl)ethyl)benzamide]	2
CCS(=O)(=O)c1ccc([C@H](CC#N)NC(=O)c2ccc(N3C[C@@H](Oc4ccc(C#N)cc4)C[C@H]3COC(F)F)cc2)cc1 [Example 24, N-((S)-2-cyano-1-(4-(ethylsulfonyl)phenyl)ethyl)-4-((2S,4S)-4-(4-cyanophenoxy)-2-((difluoromethoxy)methyl)pyrrolidin-1-yl)benzamide]	19
CCS(=O)(=O)c1ccc([C@H](CC#N)NC(=O)c2ccc(N3C[C@@H](Oc4ccc(C(N)=O)cc4)C[C@H]3COC(F)F)cc2)cc1 [Example 25, 4-((2S,4S)-4-(4-carbamoylphenoxy)-2-((difluoromethoxy)methyl)pyrrolidin-1-yl)-N-((S)-2-cyano-1-(4-(ethylsulfonyl)phenyl)ethyl)benzamide]	66
CCS(=O)(=O)c1ccc([C@H](CC#N)NC(=O)c2ccc(N3C[C@@H](Oc4ccc(C(O)(C(F)(F)F)C(F)(F)F)cc4)C[C@H]3COC(F)F)cc2)cc1 [Example 26, N-((S)-2-cyano-1-(4-(ethylsulfonyl)phenyl)ethyl)-4-((2S,4S)-2-((difluoromethoxy)methyl)-4-(4-(1,1,1,3,3,3-hexafluoro-2-hydroxypropan-2-yl)phenoxy)pyrrolidin-1-yl)benzamide]	23
CCS(=O)(=O)c1ccc([C@H](CC#N)NC(=O)c2ccc(N3C[C@@H](Oc4ccc(F)cc4)C[C@H]3COC(F)F)cc2)cc1 [Example 28, N-((S)-2-cyano-1-(4-(ethylsulfonyl)phenyl)ethyl)-4-((2S,4S)-2-((difluoromethoxy)methyl)-4-(4-fluorophenoxy)pyrrolidin-1-yl)benzamide]	24
CCS(=O)(=O)c1ccc([C@H](CC#N)NC(=O)c2ccc(N3C[C@H](NCC4CCC(F)(F)CC4)C[C@H]3COC(F)F)cc2)cc1 [Example 31]	59.8
CCS(=O)(=O)c1ccc([C@H](CC#N)NC(=O)c2ccc(N3C[C@H](N(C)CC4CCC(F)(F)CC4)C[C@H]3COC(F)F)cc2)cc1 [Example 32]	61.1
CCS(=O)(=O)c1ccc([C@H](CC#N)NC(=O)c2ccc(N3C[C@@H](OCc4ccc(OC(F)(F)F)cc4)C[C@H]3COC(F)F)cc2)cc1 [Example 39, N—((S)-2-cyano-1-(4-(ethylsulfonyl)phenyl)ethyl)-4-((2S,4S)-2-((difluoromethoxy)methyl)-4-((4-(trifluoromethoxy)benzyl)oxy)pyrrolidin-1-yl)benzamide]	67.5
CCS(=O)(=O)c1ccc([C@H](CC#N)NC(=O)c2ccc(N3C[C@@H](Oc4ccc(C5CC5)cn4)C[C@H]3COC(F)F)cc2)cc1 [Example 40, N—((S)-2-cyano-1-(4-(ethylsulfonyl)phenyl)ethyl)-4-((2S,4S)-4-((5-cyclopropylpyridin-2-yl)oxy)-2-((difluoromethoxy)methyl)pyrrolidin-1-yl)benzamide]	21
CCS(=O)(=O)c1ccc([C@H](CC#N)NC(=O)c2ccc(N3C[C@@H](Oc4ccc(OC)cn4)C[C@H]3COC(F)F)cc2)cc1 [Example 41, N—((S)-2-cyano-1-(4-(ethylsulfonyl)phenyl)ethyl)-4-((2S,4S)-2-((difluoromethoxy)methyl)-4-((5-methoxypyridin-2-yl)oxy)pyrrolidin-1-yl)benzamide]	17
CCS(=O)(=O)c1ccc([C@H](CC#N)NC(=O)c2ccc(N3C[C@@H](Oc4ccc(-n5cnc(C)c5)cc4)C[C@H]3COC(F)F)cc2)cc1 [Example 45, N—((S)-2-cyano-1-(4-(ethylsulfonyl)phenyl)ethyl)-4-((2S,4S)-2-((difluoromethoxy)methyl)-4-(4-(4-methyl-1H-imidazol-1-yl)phenoxy)pyrrolidin-1-yl)benzamide]	43
CS(=O)(=O)c1ccc([C@H](CC#N)NC(=O)c2ccc(N3C[C@@H](Oc4ccc(C(F)(F)F)cc4)C[C@H]3COC(F)F)cc2)cc1 [Example 62, N-((S)-2-cyano-1-(4-(methylsulfonyl)phenyl)ethyl)-4-((2S,4S)-2-((difluoromethoxy)methyl)-4-(4-(trifluoromethyl)phenoxy)pyrrolidin-1-yl)benzamide]	22
CCS(=O)(=O)c1ccc([C@H](CC#N)NC(=O)c2ccc(N3C[C@@H](Oc4ccc(C(F)(F)F)cc4)C[C@H]3COC(F)F)c(Cl)c2)cc1 [Example 66, 3-chloro-N-((S)-2-cyano-1-(4-(ethylsulfonyl)phenyl)ethyl)-4-((2S,4S)-2-((difluoromethoxy)methyl)-4-(4-(trifluoromethyl)phenoxy)pyrrolidin-1-yl)benzamide]	33
CCS(=O)(=O)c1ccc([C@H](CC#N)NC(=O)c2ccc(N3C[C@@H](Oc4ccc(C(F)(F)F)cc4)C[C@H]3CCOC(F)F)cc2)cc1 [Example 75, N—((S)-2-cyano-1-(4-(ethylsulfonyl)phenyl)ethyl)-4-((2R,4S)-2-(2-(difluoromethoxy)ethyl)-4-(4-(trifluoromethyl)phenoxy)pyrrolidin-1-yl)benzamide]	10
CCS(=O)(=O)c1ccc([C@H](CC#N)NC(=O)c2ccc(N3C[C@@H](Oc4ccc(C(F)(F)F)cc4)C[C@H]3CCOC(F)(F)F)cc2)cc1 [Example 76, N—((S)-2-cyano-1-(4-(ethylsulfonyl)phenyl)ethyl)-4-((2R,4S)-2-(2-(trifluoromethoxy)ethyl)-4-(4-(trifluoromethyl)phenoxy)pyrrolidin-1-yl)benzamide]	18
CCOC[C@@H]1C[C@H](Oc2ccc(C(F)(F)F)cc2)CN1c1ccc(C(=O)N[C@H](CC#N)c2ccc(S(=O)(=O)CC)cc2)cc1 [Example 77, N—((R)-2-cyano-1-(4-(ethylsulfonyl)phenyl)ethyl)-4-((2S,4S)-2-(ethoxymethyl)-4-(4-(trifluoromethyl)phenoxy)-1-pyrrolidine)benzamide]	7
CCS(=O)(=O)c1ccc([C@H](CC#N)NC(=O)c2ccc(N3C[C@@H](Oc4ccc5c(c4)OC(F)(F)O5)C[C@H]3COC(F)F)cc2)cc1 [Example 78, N—((S)-2-cyano-1-(4-(ethylsulfonyl)phenyl)ethyl)-4-((2S,4S)-4-((2,2-difluorobenzo[d][1,3]dioxol-5-yl)oxy)-2-((difluoromethoxy)methyl)pyrrolidin-1-yl)-benzamide]	12
CCS(=O)(=O)c1ccc([C@H](CC#N)NC(=O)c2ccc(N3C[C@@H](OC4CCC(C(F)(F)F)CC4)C[C@H]3COC(F)F)cc2)cc1 (stereo partly drawn) [Example 89, N—((S)-2-cyano-1-(4-(ethylsulfonyl)phenyl)ethyl)-4-((2S)-2-((difluoromethoxy)methyl)-4-((4-(trifluoromethyl)cyclohexyl)oxy)pyrrolidin-1-yl)benzamide]	14
CCS(=O)(=O)c1ccc([C@H](COCC(=O)O)NC(=O)c2ccc(N3C[C@@H](Oc4ccc(C(F)(F)F)cc4)C[C@H]3COC(F)F)cc2)cc1 [Example 90, 2-((R)-2-(4-((2S,4S)-2-((difluoromethoxy)methyl)-4-(4-(trifluoromethyl)phenoxy)pyrrolidin-1-yl)benzoylamino)-2-(4-(ethylsulfonyl)phenyl)ethoxy)acetic Acid]	9
CCS(=O)(=O)c1ccc([C@H](CC(=O)O)NC(=O)c2ccc(N3C[C@@H](Oc4ccc(C(F)(F)F)cc4)C[C@H]3COC(F)F)cc2)cc1 [Example 92, (S)-3-(4-((2S,4S)-2-((difluoromethoxy)methyl)-4-(4-(trifluoromethyl)phenoxy)pyrrolidin-1-yl)benzoylamino)-3-(4-(ethylsulfonyl)phenyl)propionic Acid]	21
CCS(=O)(=O)c1ccc([C@H](CC(=O)NO)NC(=O)c2ccc(N3C[C@@H](Oc4ccc(C(F)(F)F)cc4)C[C@H]3COC(F)F)cc2)cc1 [Example 93]	13
CCS(=O)(=O)c1ccc([C@H](CC(=O)NC)NC(=O)c2ccc(N3C[C@@H](Oc4ccc(C(F)(F)F)cc4)C[C@H]3COC(F)F)cc2)cc1 [Example 94]	31
CCS(=O)(=O)c1ccc([C@H](CC(=O)N(C)C)NC(=O)c2ccc(N3C[C@@H](Oc4ccc(C(F)(F)F)cc4)C[C@H]3COC(F)F)cc2)cc1 [Example 95]	77
CCS(=O)(=O)c1ccc([C@H](CC(=O)OC)NC(=O)c2ccc(N3C[C@@H](Oc4ccc(C(F)(F)F)cc4)C[C@H]3COC(F)(F)F)cc2)cc1 [Example 96, methyl (S)-3-(4-(ethylsulfonyl)phenyl)-3-(4-((2S,4S)-2-((trifluoromethoxy)methyl)-4-(4-(trifluoromethyl)phenoxy)pyrrolidin-1-yl)benzamido)propionate]	31
CCS(=O)(=O)c1ccc([C@H](CC(=O)OC)NC(=O)c2ccc(N3C[C@@H](Oc4ccc(C(F)(F)F)cc4)C[C@H]3COC(F)F)cc2)cc1 [Example 97, methyl (S)-3-(4-((2S,4S)-2-((difluoromethoxy)methyl)-4-(4-(trifluoromethyl)phenoxy)pyrrolidin-1-yl)benzoylamino)-3-(4-(ethylsulfonyl)phenyl)propionate]	21
CCS(=O)(=O)c1ccc([C@H](CC(N)=O)NC(=O)c2ccc(N3C[C@@H](Oc4ccc(C(F)(F)F)cc4)C[C@H]3COC(F)F)cc2)cc1 [Example 98, N—((S)-3-amino-1-(4-(ethylsulfonyl)phenyl)-3-oxopropyl)-4-((2S,4S)-2-((difluoromethoxy)methyl)-4-(4-(trifluoromethyl)phenoxy)pyrrolidin-1-yl)benzamide]	21
